From patent US20020092037A1, “Use of membrane supports in plant tissue culture processes” (priority 2000, published 2002)

Test system: P. taeda embryogenic cell lines
Experiment: Growth of non-transgenic, transgenic and mixed pine cell cultures on GENETICIN selection medium with support treatments, P. taeda
Format: cell-based, Pinus taeda
Conditions: 15 mg/L in DCR selection medium
Description: Stably transformed pine tissue had been generated using a particle bombardment method and selected for the presence of an inserted antibiotic resistance gene, nptII, on DCR2 gelled medium (Table 5), in this example containing 15 mg/L GENETICIN®, hereinafter referred to as DCR selection medium. Additionally, the presence of an inserted gus gene, encoding a β-glucuronidase enzyme in tissue culture cells, had been detected by deep blue staining of cells from each of the transgenic lines upon exposure to a colorigenic glucuronidase enzyme substrate (commercially available from Inalco, Inc.), according to techniques well known to those skilled in the art of plant transformation, and the presence of both transgenes had been verified by use of the polymerase chain reaction (PCR) using techniques well known to those skilled in the art of molecular biology. The transgenic pine lines containing and expressing both transgenes had then been cryopreserved as described in Example 4 above. […]
Cells, or the supports bearing the cells, were transferred onto fresh selection medium at biweekly intervals, and fresh weight of cells for each plate was recorded at each biweekly transfer, for a total of eight weeks (Table 19). […]

With `CN[C@@H]1[C@@H](O)[C@@H](O[C@@H]2[C@@H](O)[C@H](O[C@H]3O[C@H]([C@@H](C)O)[C@@H](O)[C@H](O)[C@H]3N)[C@@H](N)C[C@H]2N)OC[C@]1(C)O` [GENETICIN®] the “selection of non-transformed versus transformed pine tissue” value was “sufficient to kill the non-transformed tissue while allowing growth of the transformed tissue”.
